{"source": "patent US9498466B2", "about": "“Pyrrole inhibitors of S-nitrosoglutathione reductase as therapeutic agents” (Nivalis Therapeutics, Inc., priority 2008, dated 2016)", "key": {"OVA sensitized mice": {"system": "OVA sensitized mice", "assay": "GSNOR inhibition assay in an in vivo animal model: OVA mouse model of asthma, methacholine challenge, Penh", "details": "1 mg/kg, 10 mg/kg or 30 mg/kg intravenously at 24 hours prior", "description": "In an effort to determine if similar observations would manifest if GSNOR were inhibited pharmacologically by a GSNOR inhibitor, an OVA mouse model (i.e., the wild-type model of Que et al.) was used. In this study, OVA sensitized mice were administered 1 mg/kg, 10 mg/kg or 30 mg/kg of Compound 1 intravenously at 24 hours prior to being placed in a whole body plethysmograph (Buxco Research Systems, Wilmington, N.C.) and provided with fresh air.\nSubject animals were then challenged with an aerosol of increasing dosages of the bronchoconstrictive agent methacholine, a pharmacologic agent commonly used in determining the degree of bronchial hyper-reactivity in experimental subjects. In this study mice were exposed to an increasing concentration of methacholine, each dose being presented for 3 minutes, during which time readings were taken. Doses of methacholine were 0 mg/ml, 5 mg/ml, 20 mg/ml, and 50 mg/ml. The degree of bronchial hyper-reactivity was measured as the ‘Enhanced Pause’ (Penh), a unit-less index of airway hyper-reactivity (Dohi et al., Lab Invest. 79(12):1559-1571, 1999)."}, "[1]": {"system": "mouse model of ovalbumin (OVA)-induced asthma", "assay": "Experimental asthma model: pulmonary function testing (Penh) after MCh challenge", "assay_type": "in vivo", "details": "read-out: area under the curve (AUC) for Penh response reported as percent of vehicle control", "method": "A mouse model of ovalbumin (OVA)-induced asthma was used to screen GSNOR inhibitors for efficacy against methacholine (MCh)-induced bronchoconstriction/airway hyper-reactivity. […] Efficacy of GSNOR inhibitors were assessed using a prophylactic protocol in which GSNOR inhibitors were administered prior to challenge with MCh. Bronchoconstriction in response to challenge with increasing doses of MCh was assessed using whole body plethysmography (Penh; Buxco). […] The effect of GSNOR inhibitors were compared to vehicles and to Combivent (inhaled; IH) as the positive control. […]\nIn vivo airway responsiveness to methacholine was measured 24 h after the last OVA challenge in conscious, freely moving, spontaneously breathing mice with whole body plethysmography using a Buxco chamber (Wilmington, N.C.). […] The degree of bronchoconstriction was expressed as enhanced pause (Penh), a calculated dimensionless value, which correlates with the measurement of airway resistance, impedance, and intrapleural pressure in the same mouse. Penh readings were taken and averaged for 4 min. after each nebulization challenge. Penh was calculated as follows: Penh enh=[(Te/Tr−1)×(PEF/PIF)], where Te is expiration time, Tr is relaxation time, PEF is peak expiratory flow, and PIF is peak inspiratory flow×0.67 coefficient. […]"}}}
{"smiles": "Cc1cc(C(N)=O)ccc1-n1c(CCC(=O)O)ccc1-c1ccc(-n2ccnc2)cc1", "note": "[Compound 1, 3-(5-(4-(1H-imidazol-1-yl)phenyl)-1-(4-carbamoyl-2-methylphenyl)-1H-pyrrol-2-yl)propanoic acid]", "values": [{"measurement": "broncho-constrictive responses to methacholine (Penh) compared with vehicle-only dosed animals", "setting": "OVA sensitized mice", "result": "lower broncho-constrictive responses"}]}
{"smiles": "Cc1cc(C(N)=O)ccc1-n1c(CCC(=O)O)ccc1-c1ccc(Br)cc1", "note": "[Compound 7, 3-(5-(4-bromophenyl)-1-(4-carbamoyl-2-methylphenyl)-1H-pyrrol-2-yl)propanoic acid]", "values": [{"measurement": "response vs control in vivo at 0.1 mg/kg", "setting": "[1]; single IV dose of 0.1 mg/kg at 24 h prior to MCh", "result": "56.1 ± 2.2", "unit": "%"}, {"measurement": "response vs control in vivo at 1 mg/kg", "setting": "[1]; single IV dose of 1 mg/kg at 24 h prior to MCh", "result": "50.4 ± 3.7", "unit": "%"}]}
